10 compounds from ChEMBL document CHEMBL5042471, “Development and Application of Subtype-Selective Fluorescent Antagonists for the Study of the Human Adenosine A1 Receptor in Living Cells” (J Med Chem, 2021) can be followed below.

The source made the active and inactive calls. The calls are words filed in the database; no cut-off is given here.

One experiment has as its target T1, Adenosine receptor A2b (Homo sapiens, UniProt P29275).
T1 sequence (P29275 whole entry): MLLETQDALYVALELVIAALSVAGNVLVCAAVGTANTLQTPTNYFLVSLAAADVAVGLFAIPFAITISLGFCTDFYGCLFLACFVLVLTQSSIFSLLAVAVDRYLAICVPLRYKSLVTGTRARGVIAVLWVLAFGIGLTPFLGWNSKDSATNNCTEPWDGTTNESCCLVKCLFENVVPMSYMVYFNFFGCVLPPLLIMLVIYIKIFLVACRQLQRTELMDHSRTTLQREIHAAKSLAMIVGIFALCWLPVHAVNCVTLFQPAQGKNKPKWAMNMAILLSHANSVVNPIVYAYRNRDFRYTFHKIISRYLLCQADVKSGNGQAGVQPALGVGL
Put plainly: Binding affinity to NLuc human A2B adenosine receptor expressed in HEK293-A cells in presence of 1 uM PSB603 by NanoBRET binding assay. Type of experiment: cell-based. In general terms: Bioluminescence resonance energy transfer reports proximity on the nanometre scale.

The target of experiment [1] is T2, Adenosine receptor A2b (Homo sapiens) (UniProt P29275).
T2 sequence (whole entry): T1 sequence (P29275 whole entry)
Put plainly: Binding affinity to NLuc human A2B adenosine receptor expressed in HEK293-A cells assessed as maximal binding capacity in presence of 1 uM PSB603 by NanoBRET binding assay. Format: cell-based. The following applies: filed as antagonist.

In experiment [2] the target is T3, Adenosine receptor A1 (Homo sapiens, UniProt P30542).
T3 sequence (P30542 whole entry): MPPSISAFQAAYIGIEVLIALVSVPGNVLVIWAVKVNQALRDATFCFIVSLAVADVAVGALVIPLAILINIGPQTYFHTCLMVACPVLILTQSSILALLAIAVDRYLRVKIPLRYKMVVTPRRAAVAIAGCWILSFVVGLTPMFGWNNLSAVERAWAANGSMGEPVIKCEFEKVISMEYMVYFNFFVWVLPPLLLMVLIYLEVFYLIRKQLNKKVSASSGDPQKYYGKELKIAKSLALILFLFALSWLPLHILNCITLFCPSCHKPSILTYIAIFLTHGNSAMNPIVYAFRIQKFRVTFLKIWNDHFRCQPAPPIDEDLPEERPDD
The experiment in a line: Binding affinity to NLuc human A1 adenosine receptor expressed in HEK293-A cells in presence of 1 uM SLV320 by NanoBRET binding assay. Type of experiment: cell-based.

Experiment [3] concerns the target T4, Adenosine receptor A1 (Homo sapiens) (UniProt P30542).
T4 sequence (whole entry): T3 sequence (P30542 whole entry)
Put plainly: Binding affinity to NanoLuc-human A1 adenosine receptor expressed in HEK293-A cells assessed as binding constant (koff) by NanoBRET competitive binding assay. The following applies: filed as antagonist. Format: cell-based.

The target in a further experiment is T5, Adenosine receptor A3 (Homo sapiens, UniProt P0DMS8).
T5 sequence (P0DMS8 whole entry): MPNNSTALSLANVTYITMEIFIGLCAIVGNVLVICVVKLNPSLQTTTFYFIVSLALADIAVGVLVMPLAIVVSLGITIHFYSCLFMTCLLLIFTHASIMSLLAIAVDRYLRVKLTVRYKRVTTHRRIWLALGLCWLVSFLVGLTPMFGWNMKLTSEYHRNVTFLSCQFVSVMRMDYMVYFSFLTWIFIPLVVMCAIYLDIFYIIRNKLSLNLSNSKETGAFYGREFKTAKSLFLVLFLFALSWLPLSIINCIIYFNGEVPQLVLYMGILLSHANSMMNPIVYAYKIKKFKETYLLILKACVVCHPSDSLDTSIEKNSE
Put plainly: Binding affinity to NLuc human A3 adenosine receptor expressed in HEK293-A cells in presence of 1 uM MRS1220 by NanoBRET binding assay. Type of experiment: cell-based.

The target in experiment [4] is T3, Adenosine receptor A1. Put plainly: Binding affinity to NanoLuc-human A1 adenosine receptor expressed in HEK293-A cells assessed as kinetic dissociation constant by NanoBRET competitive binding assay. Type of experiment: cell-based.
The target of experiment [5] is T6, Adenosine receptor A3 (Homo sapiens) (UniProt P0DMS8).
T6 sequence (whole entry): T5 sequence (P0DMS8 whole entry)
Put plainly: Binding affinity to NLuc human A3 adenosine receptor expressed in HEK293-A cells assessed as maximal binding capacity in presence of 1 uM MRS1220 by NanoBRET binding assay. Format: cell-based. The following applies: filed as antagonist.

Experiment [6] addresses T4, Adenosine receptor A1 (Homo sapiens). Put plainly: Binding affinity to NanoLuc-human A1 adenosine receptor expressed in HEK293-A cells assessed as binding constant (kon) by NanoBRET competitive binding assay. Format: cell-based. The note with it: filed as antagonist.
The target in experiment [7] is T7, Adenosine receptor A2a (Homo sapiens, UniProt P29274). Put plainly: Binding affinity to NLuc human A2A adenosine receptor expressed in HEK293-A cells in presence of 1 uM ZM241385 by NanoBRET binding assay. Format: cell-based.
Experiment [8] has as its target T7, Adenosine receptor A2a. Put plainly: Binding affinity to NLuc human A2A adenosine receptor expressed in HEK293-A cells assessed as maximal binding capacity in presence of 1 uM ZM241385 by NanoBRET binding assay. Type of experiment: cell-based. The following applies: filed as antagonist.
The target of experiment [9] is T4, Adenosine receptor A1 (Homo sapiens). The experiment in a line: Binding affinity to SNAP-tagged-human A1 adenosine receptor expressed in HEK293 cells at 5 nM after 30 mins in presence of SLV320 by confocal microscopy method. Format: cell-based.
Experiment [10] concerns the target T3, Adenosine receptor A1. The experiment in a line: Displacement of [3H]DPCPX from human A1 adenosine receptor expressed in Flp-In-CHO cells by radioligand competitive binding assay. Format: cell-based. (In general: Loss of bound radioactivity is the signal in a displacement assay; it reports binding, not function.)
The target in experiment [11] is T4, Adenosine receptor A1 (Homo sapiens). The experiment in a line: Antagonist activity at human A1 adenosine receptor expressed in Flp-In-CHO cells assessed as reduction in NECA-mediated inhibition of forskolin stimulated cAMP accumulation by cAMP assay. Type of experiment: functional, cell-based. The note with it: filed as antagonist.
The target is the same in experiment [12]. Put plainly: Binding affinity to NLuc human A1 adenosine receptor expressed in HEK293-A cells assessed as maximal binding capacity in presence of 1 uM SLV320 by NanoBRET binding assay. The following applies: filed as antagonist. Type of experiment: cell-based.
For experiment [13], the target named is T3, Adenosine receptor A1. The experiment in a line: biochemical.
Description: Displacement of [3H]DPCPX from human A1 adenosine receptor expressed in CHO-K1 cells by radioligand binding assay

T7 sequence (P29274 whole entry): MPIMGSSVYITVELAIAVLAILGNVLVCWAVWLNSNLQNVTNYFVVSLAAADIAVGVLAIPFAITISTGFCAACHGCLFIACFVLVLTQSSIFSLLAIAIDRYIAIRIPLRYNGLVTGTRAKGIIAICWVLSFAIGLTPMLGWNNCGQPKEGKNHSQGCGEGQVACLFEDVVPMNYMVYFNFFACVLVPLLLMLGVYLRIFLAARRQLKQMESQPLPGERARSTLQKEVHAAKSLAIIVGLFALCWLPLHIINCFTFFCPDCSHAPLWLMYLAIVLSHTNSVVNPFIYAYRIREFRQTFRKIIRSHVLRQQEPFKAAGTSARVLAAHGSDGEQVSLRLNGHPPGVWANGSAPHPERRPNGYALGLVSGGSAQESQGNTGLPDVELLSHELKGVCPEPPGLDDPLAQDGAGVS

Take `CCCn1c(=O)c2[nH]c(C34CCC(C(=O)NCCNC(=O)CCNC(=O)CCNC(=O)CCCCCNC(=O)COc5ccc(/C=C/C6=[N+]7C(=Cc8ccc(-c9cccs9)n8[B-]7(F)F)C=C6)cc5)(CC3)CC4)nc2n(CCC)c1=O`: the Kd (as a rule, a measure of binding affinity in units of concentration) at Adenosine receptor A2b was 0.00776 µM; at Adenosine receptor A1 [2] it was 0.00117 µM; on Adenosine receptor A3 it was 0.135 µM; at Adenosine receptor A1 [4], 0.00309 µM; on Adenosine receptor A2a [7] it was 0.0282 µM. Moreover, the Bmax in [1] amounted to 0.016; in [5], 0.012; on Adenosine receptor A2a [8], 0.035; in experiment [12] it was 0.018. Further, the K was 0.054 min⁻¹ in [3] and 17.9 10^6/M/min in experiment [6]. Further, in experiment [9], the result was inactive. In addition, the inhibition constant Ki (usually the dissociation constant of the complex between target and ligand, obtained from inhibition or displacement) on Adenosine receptor A1 [10] was 0.000288 µM. Moreover, the pKb (in general, −log10 of the Kb, conventionally taken in molar units) in experiment [11] is 9.75.
Turning to `O[C@H]1CC[C@H](Nc2nc(-c3ccccc3)nc3[nH]ccc23)CC1`, the Ki on Adenosine receptor A1 [10] was 0.0017 µM; at Adenosine receptor A1 [13], 0.001 µM.
Regarding `CCCn1c(=O)c2[nH]c(C34CC5CC(CC(C5)C3)C4)nc2n(CCCNC(=O)c2ccc(C(=O)NCCNC(=O)CCCCC[N+]3=C(/C=C/C=C/C=C4/N(C)c5ccc(S(=O)(=O)O)cc5C4(C)C)C(C)(C)c4cc(S(=O)(=O)[O-])ccc43)cc2)c1=O`, on Adenosine receptor A1 [10], the Ki is above 10 µM.
Still for that read-out and setting: the result for `CCCn1c(=O)c2[nH]c(C34CCC(C(=O)NCCCNC(=O)CCNC(=O)CCNC(=O)OC(C)(C)C)(CC3)CC4)nc2n(CCC)c1=O` reads 0.0129 µM.
For `CCCn1c(=O)c2[nH]c(C34CCC(C(=O)NCCC(=O)NCCNC(=O)COCCNC(=O)OC(C)(C)C)(CC3)CC4)nc2n(CCC)c1=O`, the Ki on Adenosine receptor A1 [10] is 0.0112 µM.
In the case of `CCCn1c(=O)c2[nH]c(C34CCC(C(=O)NCCNC(=O)CCCCCNC(=O)COc5ccc(/C=C/C6=[N+]7C(=Cc8ccc(-c9cccs9)n8[B-]7(F)F)C=C6)cc5)(CC3)CC4)nc2n(CCC)c1=O`, affinity at Adenosine receptor A1 [10] was put at a Ki of 0.0204 µM.
Regarding `CCCn1c(=O)c2[nH]c(C34CCC(C(=O)NCCCNC(=O)COCCOCCNC(=O)OC(C)(C)C)(CC3)CC4)nc2n(CCC)c1=O`, the Ki at Adenosine receptor A1 [10] was 0.0224 µM.
`CCCn1c(=O)c2[nH]c(C34CCC(C(=O)NCCNC(=O)COCCNC(=O)OC(C)(C)C)(CC3)CC4)nc2n(CCC)c1=O`: the Ki on Adenosine receptor A1 [10] is 0.0138 µM.
The same measure, in the same setting: the result for `CCCn1c(=O)c2[nH]c(C34CCC(CCC(=O)NCCNC(=O)COCCNC(=O)OC(C)(C)C)(CC3)CC4)nc2n(CCC)c1=O` reads 0.0148 µM; that for `CCCn1c(=O)c2[nH]c(C34CCC(C(=O)NCCNC(=O)COCCOCCNC(=O)OC(C)(C)C)(CC3)CC4)nc2n(CCC)c1=O`, 0.0174 µM.
